Measured values published in patent US20090209633A1, “Treatment of Pain With Resiniferatoxin and Related Analogs” (priority 2006, published 2009).

Experiments:
[1] = target: T1, native TRPV1 (Rattus norvegicus, UniProt O35433); assay: Whole-cell currents in cultured embryonic DRG neurons (patch clamp); assay type: cell-based; settings: capsazepine 10 μM
T1 construct: RTX-induced membrane currents on native TRPV1 in embryonic DRG neurons grown in culture; endogenous in cells; host or cells: primary rat E18 DRG neurons
Procedure: (§1) Electrophysiology. Whole-cell and single-channel currents were recorded from rat DRG neurons in culture and from Xenopus laevis oocytes injected with rat TRPV1 cRNA. Animals were cared for according to the standards of the National Institutes of Health (NIH). All animal use protocols were approved by Southern Illinois University School of Medicine Animal Care Committee.
Primary DRG neuronal cultures were prepared from embryonic day 18 (E18) rat embryos. Adult pregnant rats were killed with an overdose of isoflurane. DRG were dissected and the cells were dissociated by triturating with a fire-polished glass pipette. Cells were cultured in Neurobasal medium (Life Technologies, Buffalo, N.Y., USA), supplemented with 10% fetal bovine serum (FBS), and grown on poly-D-lysine-coated glass coverslips. Cells were used from 5 to 15 days after plating. Small diameter (<30 μm) rounded neurons were selected for patch-clamp experiments. […] The Giga-seal patch-clamp technique was used to record whole-cell currents. For perforated-patch recordings, the bath solution contained (mM): sodium gluconate 140, KCl 2.5, Hepes 10, MgCl2 1 and ethylene glycol bis(2-aminoethyl ether)-N,N,N′N′-tetraacetic acid (EGTA) 1.5 (pH adjusted to 7.35 with NaOH), and the pipette solution contained (mM): sodium gluconate 130, NaCl 10, KCl 2.5, Hepes 10, MgCl2 1, EGTA 1.5 and 240 μg/ml^−1 amphotericin B (pH adjusted to 7.35 with NaOH). For current-clamp experiments the pipette solution contained (mM): potassium gluconate 130, NaCl 10, MgCl2 1, EGTA 0.2, K2ATP 1 and Hepes 10; pH adjusted to 7.35 with NaOH. Extracellular solution for current- and voltage-clamp experiments contained (mM): NaCl 140, KCl 4, MgCl2 1 and Hepes 10; pH adjusted to 7.35 with NaOH. Currents were recorded using a WPC 100 patch-clamp amplifier (E.S.F. Electronic, Goettingan, Germany). Data were filtered at 10 kHz, digitized (VR-10B, Instrutech Corp., Great Neck, N.Y., USA) and stored on videotapes or directly stored in the computer using a LabView interface. For analysis of whole-cell currents, data were filtered at 1 kHz (−3 db frequency with an 8-pole low-pass Bessel filter, Warner Instruments, LPF-8) and digitized at 2 kHz.
This example tests the activation of whole-cell current in DRG neurons by RTX. We determined the properties of RTX-induced membrane currents on native TRPV1 in embryonic DRG neurons grown in culture. […] Protons were not used to elicit currents because of the presence of acid-sensitive ion channels in these neurons.

[2] = target: T2, rat TRPV1 (Rattus norvegicus, UniProt O35433); assay: Whole-cell currents in Xenopus laevis oocytes expressing TRPV1 (double-electrode voltage clamp); assay type: cell-based; settings: ruthenium red 100 μM; RTX 10 nM repeated application
T2 construct: expressed in transfected cells; host or cells: Xenopus laevis oocytes injected with TRPV1 cRNA
Procedure: Rat TRPV1 dcRNA. Cloned rat TRPV1 was obtained from the Julius Lab at the University of California San Francisco. TRPV1 cRNA was obtained using standard techniques known to those of skill in the art.
as §1
Oocytes were obtained by an abdominal incision after anaesthetizing the frog by immersion in a 0.05% solution of 3-aminobenzoic acid ethyl ester (MS222). Animals were killed by a subcutaneous injection of a 2% solution of MS222 according to NIH guidelines. One day after separating the oocytes from the follicular layer, 50-70 nl TRPV1 cRNA was injected using a Drummond Nanoject (Drummond Scientific Co., Broomall, Pa., USA). Oocytes were used for recording from 3 days after the injection. Double-electrode voltage clamp was performed using a Warner amplifier (Warner Instruments, Hamden, Conn., USA). Data were digitized and stored on videotape or directly stored on the computer using a LabView interface (National Instruments, Austin, Tex., USA). Experiments were performed at 21-23° C. Oocytes were placed in a Perspex chamber superfused (5-10 ml min^−1) with Ca^2+-free Ringer solution containing (mM): NaCl 100, KCl 2.5 and Hepes 5; pH adjusted to 7.35 with NaOH. Current-voltage relationships were measured using 1-s voltage ramps from −80 to +80 mV.
This example tests the activation of whole-cell currents in oocytes by RTX. Whole-cell currents were recorded from oocytes heterologously expressing TRPV1. […] Agonist-induced currents are shown after subtracting the leak current in the absence of the agonist. […] In order to quantify this, we calculated the ratio of outward and inward currents. […] PKC activation increases sensitivity as well as TRPV1 translocation. […] (Szallasi et al. 1990b; Caterina et al. 1997; Marshall et al. 2003.)

T1 sequence (O35433 whole entry): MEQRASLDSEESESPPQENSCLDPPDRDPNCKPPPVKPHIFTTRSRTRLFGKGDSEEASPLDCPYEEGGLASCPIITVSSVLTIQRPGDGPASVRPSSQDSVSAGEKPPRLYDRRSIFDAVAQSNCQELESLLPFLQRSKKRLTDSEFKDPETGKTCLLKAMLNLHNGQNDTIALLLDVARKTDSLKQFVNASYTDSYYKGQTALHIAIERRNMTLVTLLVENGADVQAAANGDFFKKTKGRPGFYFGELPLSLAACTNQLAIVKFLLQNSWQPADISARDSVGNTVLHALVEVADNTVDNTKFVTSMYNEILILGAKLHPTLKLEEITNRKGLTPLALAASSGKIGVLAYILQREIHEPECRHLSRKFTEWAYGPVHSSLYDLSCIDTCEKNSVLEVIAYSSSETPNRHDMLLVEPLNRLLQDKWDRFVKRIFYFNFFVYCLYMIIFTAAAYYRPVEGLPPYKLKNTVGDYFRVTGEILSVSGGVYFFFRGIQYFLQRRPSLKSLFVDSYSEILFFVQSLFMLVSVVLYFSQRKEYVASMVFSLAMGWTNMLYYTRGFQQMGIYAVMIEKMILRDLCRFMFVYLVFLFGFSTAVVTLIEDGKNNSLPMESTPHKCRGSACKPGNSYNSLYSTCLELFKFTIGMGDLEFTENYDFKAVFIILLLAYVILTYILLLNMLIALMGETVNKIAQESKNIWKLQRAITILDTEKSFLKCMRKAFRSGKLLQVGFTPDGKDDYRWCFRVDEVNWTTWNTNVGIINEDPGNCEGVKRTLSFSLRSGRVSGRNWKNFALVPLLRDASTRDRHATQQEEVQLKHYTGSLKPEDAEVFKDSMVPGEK
T2 sequence (O35433 whole entry): as above

Structure (SMILES): Oc1cc2c(cc1O)CN(C(=S)NCCc1ccc(Cl)cc1)CCC2 [capsazepine]
- block of current induced by capsaicin (1 μM) and RTX (10 nM) [1]: completely blocked
- rate of block induced by capsazepine ([1]; RTX-induced (10 nM) currents): 612.3 ± 219 s
- rate of block induced by capsazepine ([1]; capsaicin-induced (1 μM) currents): 18.4 ± 2.8 s

Structure (SMILES): N.N.N.N.N.N.N.N.N.N.N.N.N.N.[Cl-].[Cl-].[Cl-].[Cl-].[Cl-].[Cl-].[O-2].[O-2].[Ru+3].[Ru+3].[Ru+4] [ruthenium red, reference compound]
- block of RTX-induced current [2]: readily blocked
